Assay results taken from paper PMC3914206.

Experiments:
Test in all cases: KiNativ chemical proteomics profiling in HeLa and PC3 cell lysates
Format in all cases: binding
[1] = molecular target: T1, selected panels of kinases in HeLa and PC3 cell lysates (Homo sapiens, UniProt P00533); conditions: 10 uM, proteome PC3
T1 construct: endogenous in cells; host or cells: HeLa and PC3 cell lysates

[2] = molecular target: T2, selected panels of kinases in HeLa and PC3 cell lysates (Homo sapiens, UniProt P16591); conditions: 10 uM, peptide TSVAVk[…], labeling site Lys1
T2 construct: endogenous in cells; host or cells: HeLa and PC3 cell lysates
T2 sequence (P16591 whole entry): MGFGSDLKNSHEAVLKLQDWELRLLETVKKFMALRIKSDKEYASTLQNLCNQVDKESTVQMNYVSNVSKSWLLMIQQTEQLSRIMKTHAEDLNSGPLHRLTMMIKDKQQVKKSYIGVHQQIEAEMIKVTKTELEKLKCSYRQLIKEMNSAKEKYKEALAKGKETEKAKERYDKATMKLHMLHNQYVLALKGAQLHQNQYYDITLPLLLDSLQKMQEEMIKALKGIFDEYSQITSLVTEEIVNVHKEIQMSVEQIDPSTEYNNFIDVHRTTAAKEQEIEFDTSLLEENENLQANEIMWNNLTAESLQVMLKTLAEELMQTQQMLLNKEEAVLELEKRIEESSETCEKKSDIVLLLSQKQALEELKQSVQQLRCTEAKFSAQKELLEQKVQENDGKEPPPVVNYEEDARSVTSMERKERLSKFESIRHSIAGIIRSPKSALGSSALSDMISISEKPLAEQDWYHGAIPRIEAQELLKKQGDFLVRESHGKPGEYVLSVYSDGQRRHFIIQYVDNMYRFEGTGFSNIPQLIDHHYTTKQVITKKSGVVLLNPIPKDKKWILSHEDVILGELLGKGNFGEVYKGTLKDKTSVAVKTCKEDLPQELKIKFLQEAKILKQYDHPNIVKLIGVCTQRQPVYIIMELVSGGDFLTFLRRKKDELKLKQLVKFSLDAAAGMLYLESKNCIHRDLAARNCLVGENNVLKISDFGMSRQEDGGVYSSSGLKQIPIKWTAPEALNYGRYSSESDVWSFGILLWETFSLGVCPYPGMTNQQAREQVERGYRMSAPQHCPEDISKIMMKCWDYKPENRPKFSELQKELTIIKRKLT

[3] = molecular target: T3, selected panels of kinases in HeLa and PC3 cell lysates (Homo sapiens, UniProt P41743); conditions: 10 uM; PKCi; peptide IYAMkVVK; proteome HEL; labeling site Lys1
T3 construct: endogenous in cells; host or cells: HeLa and PC3 cell lysates

[4] = molecular target: T4, selected panels of kinases in HeLa and PC3 cell lysates (Homo sapiens, UniProt P48736); conditions: 10 uM; PIK3CG; peptide KkPLWLEFK; proteome HEL; labeling site ATP
T4 construct: endogenous in cells; host or cells: HeLa and PC3 cell lysates
T4 sequence (P48736 whole entry): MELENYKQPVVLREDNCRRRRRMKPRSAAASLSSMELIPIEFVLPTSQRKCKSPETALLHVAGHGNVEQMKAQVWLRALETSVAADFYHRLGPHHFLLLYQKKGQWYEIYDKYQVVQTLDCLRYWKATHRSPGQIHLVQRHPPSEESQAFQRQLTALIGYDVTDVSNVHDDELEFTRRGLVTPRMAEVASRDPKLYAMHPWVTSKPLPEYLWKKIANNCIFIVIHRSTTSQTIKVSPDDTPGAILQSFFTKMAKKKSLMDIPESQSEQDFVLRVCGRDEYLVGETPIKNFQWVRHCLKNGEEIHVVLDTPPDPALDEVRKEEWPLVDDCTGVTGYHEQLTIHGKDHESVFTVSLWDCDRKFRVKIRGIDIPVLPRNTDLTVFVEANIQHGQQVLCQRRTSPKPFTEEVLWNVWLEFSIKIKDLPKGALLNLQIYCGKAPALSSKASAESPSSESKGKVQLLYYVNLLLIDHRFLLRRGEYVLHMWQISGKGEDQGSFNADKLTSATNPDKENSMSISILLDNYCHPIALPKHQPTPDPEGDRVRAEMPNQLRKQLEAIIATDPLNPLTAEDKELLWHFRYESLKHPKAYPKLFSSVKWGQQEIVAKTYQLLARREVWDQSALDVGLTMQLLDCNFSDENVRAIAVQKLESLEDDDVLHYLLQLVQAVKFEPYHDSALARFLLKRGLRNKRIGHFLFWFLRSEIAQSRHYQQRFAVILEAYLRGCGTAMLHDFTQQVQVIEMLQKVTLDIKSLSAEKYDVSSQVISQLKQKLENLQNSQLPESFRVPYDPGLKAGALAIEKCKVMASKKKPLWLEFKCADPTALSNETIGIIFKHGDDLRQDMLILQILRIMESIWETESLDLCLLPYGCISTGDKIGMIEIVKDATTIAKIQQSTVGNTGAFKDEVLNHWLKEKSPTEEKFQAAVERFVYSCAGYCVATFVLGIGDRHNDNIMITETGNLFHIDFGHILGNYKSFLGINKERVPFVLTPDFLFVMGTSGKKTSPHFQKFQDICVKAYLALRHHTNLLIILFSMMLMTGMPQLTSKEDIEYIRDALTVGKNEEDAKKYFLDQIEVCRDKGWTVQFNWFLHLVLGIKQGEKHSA

[5] = molecular target: T5, selected panels of kinases in HeLa and PC3 cell lysates (Homo sapiens, UniProt P50613); conditions: 10 uM; proteome HEL; peptide DLk[…]; labeling site Lys2
T5 construct: endogenous in cells; host or cells: HeLa and PC3 cell lysates

[6] = molecular target: T6, selected panels of kinases in HeLa and PC3 cell lysates (Homo sapiens, UniProt P51812); conditions: 10 uM; for % Inhibition RSK2 domain1: peptide LTDFGLSkESIDHEKK, labeling site Activation Loop
T6 construct: endogenous in cells; host or cells: HeLa and PC3 cell lysates
T6 sequence (P51812 whole entry, the tested form may be a part): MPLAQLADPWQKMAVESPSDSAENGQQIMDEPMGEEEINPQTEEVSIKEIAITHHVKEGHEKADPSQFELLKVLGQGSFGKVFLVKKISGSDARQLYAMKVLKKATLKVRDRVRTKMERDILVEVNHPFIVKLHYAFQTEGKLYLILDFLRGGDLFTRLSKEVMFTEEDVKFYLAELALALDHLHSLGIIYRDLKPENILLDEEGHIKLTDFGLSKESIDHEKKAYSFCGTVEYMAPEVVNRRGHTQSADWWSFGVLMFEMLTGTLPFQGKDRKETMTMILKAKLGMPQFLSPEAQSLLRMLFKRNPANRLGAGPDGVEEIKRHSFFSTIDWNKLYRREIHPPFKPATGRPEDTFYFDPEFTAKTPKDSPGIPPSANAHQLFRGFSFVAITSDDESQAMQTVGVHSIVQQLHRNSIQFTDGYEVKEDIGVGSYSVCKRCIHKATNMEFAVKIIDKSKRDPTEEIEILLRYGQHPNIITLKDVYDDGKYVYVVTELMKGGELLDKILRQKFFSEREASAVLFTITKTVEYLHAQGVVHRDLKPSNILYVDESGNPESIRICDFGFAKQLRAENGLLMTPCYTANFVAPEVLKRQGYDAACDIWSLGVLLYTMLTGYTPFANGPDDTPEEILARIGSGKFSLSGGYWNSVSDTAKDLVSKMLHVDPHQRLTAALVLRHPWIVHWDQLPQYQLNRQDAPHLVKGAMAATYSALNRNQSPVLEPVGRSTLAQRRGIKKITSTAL

[7] = molecular target: T7, selected panels of kinases in HeLa and PC3 cell lysates (Homo sapiens, UniProt P52564); conditions: 10 uM
T7 construct: endogenous in cells; host or cells: HeLa and PC3 cell lysates
T7 sequence (P52564 1-334): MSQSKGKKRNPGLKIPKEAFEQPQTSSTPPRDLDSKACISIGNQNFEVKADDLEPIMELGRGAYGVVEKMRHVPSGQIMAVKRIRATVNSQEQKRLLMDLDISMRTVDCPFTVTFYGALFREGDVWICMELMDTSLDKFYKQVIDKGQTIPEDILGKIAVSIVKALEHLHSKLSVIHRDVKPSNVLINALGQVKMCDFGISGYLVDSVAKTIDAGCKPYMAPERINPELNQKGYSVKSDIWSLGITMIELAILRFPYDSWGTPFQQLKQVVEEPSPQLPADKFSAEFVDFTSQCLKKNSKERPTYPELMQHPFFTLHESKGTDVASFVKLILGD

[8] = molecular target: T8, selected panels of kinases in HeLa and PC3 cell lysates (Homo sapiens, UniProt P53350); conditions: 10 uM; PLK1; peptide DLk[…]; proteome HEL; labeling site Lys2
T8 construct: endogenous in cells; host or cells: HeLa and PC3 cell lysates

[9] = molecular target: T9, selected panels of kinases in HeLa and PC3 cell lysates (Homo sapiens, UniProt Q04912); conditions: 10 uM; RON; peptide IQCAIkSLSR; proteome PC3; labeling site Lys1
T9 construct: endogenous in cells; host or cells: HeLa and PC3 cell lysates

[10] = molecular target: T10, selected panels of kinases in HeLa and PC3 cell lysates (Homo sapiens, UniProt Q13188); conditions: 10 uM, peptide […]k[…], labeling site Lys1
T10 construct: endogenous in cells; host or cells: HeLa and PC3 cell lysates
T10 sequence (Q13188 1-491): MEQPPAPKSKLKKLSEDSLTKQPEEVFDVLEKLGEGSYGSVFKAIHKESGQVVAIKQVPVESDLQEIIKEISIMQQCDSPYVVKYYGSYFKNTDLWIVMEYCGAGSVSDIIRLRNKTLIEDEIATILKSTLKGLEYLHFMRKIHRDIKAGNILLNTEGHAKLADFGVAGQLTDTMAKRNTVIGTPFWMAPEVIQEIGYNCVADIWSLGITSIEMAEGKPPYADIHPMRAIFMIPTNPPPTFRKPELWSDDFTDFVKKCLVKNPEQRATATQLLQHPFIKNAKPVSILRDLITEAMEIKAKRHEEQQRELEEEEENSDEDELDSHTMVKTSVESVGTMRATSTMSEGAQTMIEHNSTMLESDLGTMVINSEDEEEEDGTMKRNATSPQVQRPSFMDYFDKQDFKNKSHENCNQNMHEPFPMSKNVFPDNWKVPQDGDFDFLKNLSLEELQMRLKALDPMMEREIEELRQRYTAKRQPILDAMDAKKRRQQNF

[11] = molecular target: T11, selected panels of kinases in HeLa and PC3 cell lysates (Homo sapiens, UniProt Q14164); conditions: 10 uM; proteome HEL; peptide SGELVAVk[…]; labeling site Lys1
T11 construct: endogenous in cells; host or cells: HeLa and PC3 cell lysates

[12] = molecular target: T12, selected panels of kinases in HeLa and PC3 cell lysates (Homo sapiens, UniProt Q15759); conditions: 10 uM; proteome PC3; peptide QELNkTVWEVPQR; labeling site Other
T12 construct: endogenous in cells; host or cells: HeLa and PC3 cell lysates
T12 sequence (Q15759 whole entry): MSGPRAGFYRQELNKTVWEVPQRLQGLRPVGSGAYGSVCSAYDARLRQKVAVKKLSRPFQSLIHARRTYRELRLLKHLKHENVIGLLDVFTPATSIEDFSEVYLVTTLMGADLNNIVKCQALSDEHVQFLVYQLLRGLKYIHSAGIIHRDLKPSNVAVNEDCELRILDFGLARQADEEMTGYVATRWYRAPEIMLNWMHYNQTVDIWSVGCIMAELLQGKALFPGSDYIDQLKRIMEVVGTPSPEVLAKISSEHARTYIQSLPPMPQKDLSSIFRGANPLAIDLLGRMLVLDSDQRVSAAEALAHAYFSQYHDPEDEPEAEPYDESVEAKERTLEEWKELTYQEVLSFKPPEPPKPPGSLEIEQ

[13] = molecular target: T13, selected panels of kinases in HeLa and PC3 cell lysates (Homo sapiens, UniProt Q16512); conditions: 10 uM; PKN1; peptide GHFGk[…]; proteome HEL; labeling site Lys1
T13 construct: endogenous in cells; host or cells: HeLa and PC3 cell lysates

[14] = molecular target: T14, selected panels of kinases in HeLa and PC3 cell lysates (Homo sapiens, UniProt Q58A45); conditions: 10 uM; PAN3; peptide VMDPTkILITGK; proteome HEL
T14 construct: endogenous in cells; host or cells: HeLa and PC3 cell lysates

[15] = molecular target: T15, selected panels of kinases in HeLa and PC3 cell lysates (Homo sapiens, UniProt Q86UE8); conditions: 10 uM; TLK2; peptide YVAVkIHQLNK; proteome PC3; labeling site Lys1
T15 construct: endogenous in cells; host or cells: HeLa and PC3 cell lysates

[16] = molecular target: T16, selected panels of kinases in HeLa and PC3 cell lysates (Homo sapiens, UniProt Q9NYL2); conditions: 10 uM, ZAK, peptide […]k, labeling site Lys1
T16 construct: endogenous in cells; host or cells: HeLa and PC3 cell lysates
T16 sequence (Q9NYL2 whole entry): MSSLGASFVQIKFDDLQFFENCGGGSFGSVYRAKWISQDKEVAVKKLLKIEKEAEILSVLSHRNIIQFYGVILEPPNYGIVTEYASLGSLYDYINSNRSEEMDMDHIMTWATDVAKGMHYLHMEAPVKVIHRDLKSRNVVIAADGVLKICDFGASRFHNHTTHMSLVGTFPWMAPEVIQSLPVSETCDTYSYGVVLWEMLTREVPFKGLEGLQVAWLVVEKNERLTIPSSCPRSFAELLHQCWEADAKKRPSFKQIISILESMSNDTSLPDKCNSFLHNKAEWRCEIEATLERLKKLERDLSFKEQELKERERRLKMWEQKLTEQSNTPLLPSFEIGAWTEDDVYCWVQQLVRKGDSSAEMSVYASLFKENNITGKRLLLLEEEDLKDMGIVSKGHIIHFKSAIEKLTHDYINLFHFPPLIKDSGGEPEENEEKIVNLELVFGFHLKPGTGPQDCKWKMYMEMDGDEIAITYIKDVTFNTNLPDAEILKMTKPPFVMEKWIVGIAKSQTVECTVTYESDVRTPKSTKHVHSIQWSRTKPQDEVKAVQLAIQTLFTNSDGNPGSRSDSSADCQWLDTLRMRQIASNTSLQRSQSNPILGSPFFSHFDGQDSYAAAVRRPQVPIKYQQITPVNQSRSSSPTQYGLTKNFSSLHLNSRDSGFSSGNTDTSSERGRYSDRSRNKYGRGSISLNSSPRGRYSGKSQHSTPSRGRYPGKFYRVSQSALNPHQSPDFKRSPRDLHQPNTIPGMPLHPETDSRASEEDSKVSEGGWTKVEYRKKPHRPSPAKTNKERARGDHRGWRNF

[17] = molecular target: T17, selected panels of kinases in HeLa and PC3 cell lysates (Homo sapiens, UniProt Q9P2K8); conditions: 10 uM
T17 construct: endogenous in cells; host or cells: HeLa and PC3 cell lysates

[18] = molecular target: T18, selected panels of kinases in HeLa and PC3 cell lysates (Homo sapiens, UniProt Q9Y4K4); conditions: 10 uM; proteome PC3; peptide […]kIIK; labeling site Lys1
T18 construct: endogenous in cells; host or cells: HeLa and PC3 cell lysates

[19] = peptide IPVAIkELR, labeling site Lys1
[20] = peptide ITDFGLAkLLGAEEK, labeling site Activation Loop
[21] = peptide […]kVPIK, labeling site Activation Loop
[22] = peptide DLk[…], proteome PC3, labeling site Lys2
[23] = peptide Sk[…], proteome HEL, labeling site Protein Kinase Domain
[24] = peptide Sk[…], proteome PC3, labeling site Protein Kinase Domain
[25] = proteome HEL, peptide DVk[…], labeling site Lys2
[26] = proteome PC3, peptide DVk[…], labeling site Lys2
[27] = proteome PC3, peptide […]kR, labeling site Lys1
[28] = proteome HEL, peptide LDGCCYAVkR, labeling site Lys1
[29] = proteome PC3, peptide DLk[…], labeling site Lys2
[30] = proteome PC3, peptide LDGCCYAVkR, labeling site Lys1

T1 sequence (P00533 25-1210): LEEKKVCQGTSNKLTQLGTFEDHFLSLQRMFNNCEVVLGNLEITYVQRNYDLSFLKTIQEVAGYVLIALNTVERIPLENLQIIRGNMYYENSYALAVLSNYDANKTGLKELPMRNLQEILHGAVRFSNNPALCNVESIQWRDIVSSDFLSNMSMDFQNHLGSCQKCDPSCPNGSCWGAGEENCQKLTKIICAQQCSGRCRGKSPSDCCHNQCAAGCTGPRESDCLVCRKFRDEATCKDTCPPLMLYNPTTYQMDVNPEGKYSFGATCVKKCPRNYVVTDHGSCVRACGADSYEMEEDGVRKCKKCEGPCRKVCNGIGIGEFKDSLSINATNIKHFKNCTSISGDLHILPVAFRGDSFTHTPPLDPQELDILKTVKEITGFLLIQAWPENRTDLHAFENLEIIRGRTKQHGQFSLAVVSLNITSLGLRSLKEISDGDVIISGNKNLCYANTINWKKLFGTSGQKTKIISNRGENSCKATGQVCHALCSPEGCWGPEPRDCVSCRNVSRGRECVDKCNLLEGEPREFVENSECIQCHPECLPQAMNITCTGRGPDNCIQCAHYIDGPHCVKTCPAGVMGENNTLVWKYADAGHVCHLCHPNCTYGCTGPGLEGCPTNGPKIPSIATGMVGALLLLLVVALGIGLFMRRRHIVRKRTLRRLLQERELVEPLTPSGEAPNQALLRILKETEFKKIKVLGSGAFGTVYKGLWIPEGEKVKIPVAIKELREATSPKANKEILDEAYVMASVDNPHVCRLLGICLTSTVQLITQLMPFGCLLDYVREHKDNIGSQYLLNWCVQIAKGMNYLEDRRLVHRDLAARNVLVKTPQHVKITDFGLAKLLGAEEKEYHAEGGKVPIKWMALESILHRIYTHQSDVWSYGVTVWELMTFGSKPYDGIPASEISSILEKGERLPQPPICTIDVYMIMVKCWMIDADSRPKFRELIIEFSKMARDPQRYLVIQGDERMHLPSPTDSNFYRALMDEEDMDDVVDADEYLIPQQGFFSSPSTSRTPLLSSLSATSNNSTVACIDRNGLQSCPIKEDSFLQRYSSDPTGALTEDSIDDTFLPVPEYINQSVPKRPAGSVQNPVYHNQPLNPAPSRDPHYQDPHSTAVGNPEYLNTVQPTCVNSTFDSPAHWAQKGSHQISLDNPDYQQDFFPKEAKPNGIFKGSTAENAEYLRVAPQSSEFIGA

SMILES | % Inhibiton, EGFR [1, 19] [%] | % Inhibiton, EGFR [1, 20] [%] | % Inhibiton, EGFR [1, 21] [%] | % Inhibiton, FER ([2]; proteome HEL) [%] | % Inhibiton, FER ([2]; proteome PC3) [%] | % Inhibition PKCi [3] [%] | % Inhibition PIK3CG [4] [%] | % Inhibiton, CDK7 [5] [%] | % Inhibition RSK2 domain1 ([6]; proteome HEL) [%] | % Inhibition RSK2 domain2 [6, 22] [%] | % Inhibition RSK2 domain2 [6, 23] [%] | % Inhibition RSK2 domain2 [6, 24] [%] | % Inhibiton, MAP2K6 [7, 25] [%] | % Inhibiton, MAP2K6 [7, 26] [%] | % Inhibiton, MAP2K6 [7, 27] [%] | % Inhibition PLK1 [8] [%] | % Inhibition RON [9] [%] | % Inhibiton, MST2 ([10]; proteome HEL) [%] | % Inhibiton, MST2 ([10]; proteome PC3) [%] | % Inhibiton, IKKe [11] [%] | further results
COc1cc(C(=O)N2CCC(N3CCN(C)CC3)CC2)ccc1Nc1ncc2c(n1)N(C1CCCC1)c1ccccc1C(=O)N2C [Compound 25, 11-cyclopentyl-2-((2-methoxy-4-(4-(4-methylpiperazin-1-yl)piperidine-1-carbonyl)phenyl)amino)-5-methyl-5H-benzo[e]pyrimido[5,4-b][1,4]diazepin-6(11H)-one] | -6.4 | -31.1 | -10.1 | 21.3 | 28.9 | 13.3 | 11.8 | 67.9 | 1.2 | -4.3 | 1.3 | 1.9 | 14.2 | -3.9 | 12.8 | 9.6 | -17.5 | -4.5 | -9.2 | -20.7 | % Inhibiton, p38b [12]: 14.5%; % Inhibition PKN1 [13]: -2.7%; % Inhibition PAN3 [14]: -1.7%; % Inhibition TLK2 [15]: -3.6%; % Inhibition ZAK ([16]; proteome HEL): -6.6%; % Inhibition ZAK ([16]; proteome PC3): -9.3%; % Inhibiton, GCN2 [17, 28]: 4.5%; % Inhibiton, GCN2 [17, 29]: -1.6%; % Inhibiton, GCN2 [17, 30]: -1.5%; % Inhibiton, KHS1 [18]: -6.6%
CCOc1cc(C(=O)N2CCC(N3CCN(C)CC3)CC2)ccc1Nc1ncc2c(n1)N(C1CCCC1)c1ccccc1C(=O)N2C [Compound 26] | -3.3 | -5.7 | -8.1 | 24.7 | 12 | -2.8 | 45.3 | 22.2 | 7.2 | -0.5 | 7.4 | -14.6 | -4.3 | -9.9 | -2.3 | 23.9 | 11.1 | 10.8 | -9.4 | 8.6 | % Inhibiton, p38b [12]: 14.6%; % Inhibition PKN1 [13]: 15.3%; % Inhibition PAN3 [14]: -17.8%; % Inhibition TLK2 [15]: -11.7%; % Inhibition ZAK ([16]; proteome HEL): 13.4%; % Inhibition ZAK ([16]; proteome PC3): -25.5%; % Inhibiton, GCN2 [17, 28]: -6.3%; % Inhibiton, GCN2 [17, 29]: 1.6%; % Inhibiton, GCN2 [17, 30]: 6.4%; % Inhibiton, KHS1 [18]: -7.1%
